From PMC11653243, “Enhancing Phototoxicity in BODIPY‐Perylene Charge Transfer Dyads by Combined Iodination and Mesylation” (Chemistry (Weinheim an Der Bergstrasse, Germany), 2024)
Values joined by “and” are separate entries in the source; they are usually repeats but may differ in a detail not shown here. Identical values can stand only once.

Tests used:
[1] = system: MCF‐7 spheroids; assay: Spheroid dark toxicity, CellTiter-Glo 3D; assay type: cell-based; conditions: Homo sapiens, MCF7, light or radiation study; MCF‐7 3D (spheroids); without irradiation
Protocol: 3D Cell Studies: Toxicity Assays
Spheroids were seeded in a clear BIOFLOAT™ round bottom 96 well plate (Sarstedt) at 2x10^4 cells per well, centrifuged using the […] for 5 minutes at 700 rpm and allowed to grow and compact for 96 hours. A 2X concentrated solution of B2P, B2PI, MB2P or MB2PI was added in a 1:1 ratio (BODIPY:media) to each well of the 96 well plate, which contained 50 µL phenol red free media, and incubated for 24 h. Prior to irradiation 90% of the media/Ru solution was removed, replaced with fresh phenol red media to dilute the remaining BODIPY (multiple dilution steps, more required for 15 µM and above), and brought to a total volume of 100 µL. Phototoxicity studies in […] spheroids were performed as per the cell monolayer protocol with an irradiation dose of 5 J/cm2 using a 470 nm LED.
Control studies with untreated spheroids confirmed 17 J/cm2 irradiation dose was toxic to spheroids, however the spheroids remained viable after 5 J/cm2 irradiation. CellTiter-Glo 3D cell viability assay (Promega) was used to assess spheroid viability and performed as per the manufacturer’s protocol, where the CellTiter-Glo 3D reagent was added to the spheroid wells

[2] = system: CHO cells; assay: Cellular uptake and co-localisation by confocal microscopy; assay type: cell-based, Chinese Hamster; conditions: ER Tracker 1 µM, 45 min
Protocol: (§1) The intracellular uptake of the BODIPY derivatives was assessed in two mammalian cell lines, CHO (non‐cancer) and MCF‐7 (cancer). […] B2P and B2PI were studied following 4 h and 17 h incubation in MCF‐7 cells with 10 μM of each BODIPY derivative. A 17 h incubation was selected to allow for adequate cell uptake of the complex, ensuring sufficient brightness for confocal imaging while minimising cell toxicity.
(§2) Across all four compounds uptake of the BODIPYs led to extremely bright and highly punctate staining from within the cells. As all of the BODIPY‐perylene probes emit minimally from aqueous media including cell culture media (Figure S20) the bright emission is attributed to localisation of the complex to non‐aqueous domains, i. e. organelle membranes or to lipid droplets (LDs). To identify which, co‐localisation studies with targeted probes were completed. CHO and MCF‐7 cells were treated with B2P, B2PI, MB2P or MB2PI and co‐stained with specific organelle markers including LD probes; PyLa−C17Cer and BODIPY 493/503, an endoplasmic reticulum stain; ER Tracker Blue‐White and a lysosomal stain; LysoTracker Deep Red. Pyla‐C17Cer was previously published and localises in both the ER and LDs.[41] Cellular uptake of B2PI was recently reported in MCF‐7 cells, though localisation was not explored.[25]
(§3) MCF‐7 and CHO cells were treated with B2P, MB2P, B2PI or MB2PI for 17 h and co‐stained with a number of dyes for co‐staining including LysoTracker Deep Red, ER Tracker Blue/White, PyLa−C17Cer, BODIPY 493/503 and H2DCFDA. Cells were imaged in phenol red free media using a Leica DMi8 confocal microscope with a 63x or 100x oil immersion lens and a heated state at 37 °C.
(§4) Uptake in Live Cell Monolayers
(§5) CHO cells were incubated in 75cm2 cell culture flasks (Corning) with DMEM/F-12 Ham medium (Sigma-Aldrich) with L-glutamine and sodium bicarbonate supplemented with 10% fetal bovine serum (FBS) (Gibco) and 1% penicillin-streptomycin (Sigma-Aldrich). MCF-7 cells were incubated in 25cm2 cell culture flasks with RPMI-1640 medium (Sigma-Aldrich) with L-glutamine and sodium bicarbonate supplemented with 10% fetal bovine serum (FBS, Gibco) and 1% penicillin-streptomycin. Cells were incubated at 37 °C with 5% CO2 and detached from the flask at 90% confluency using a 1X Trypsin-EDTA solution (Sigma-Aldrich). Cells were counted using the EVE automated cell counter (NanoEnTek) and seeded at 1 x 10^5 cells per mL in a 4 or 8 chamber µ-slide (ibidi) for cell imaging and left for 24 h at 37 °C. Cells were rinsed with 1X PBS (Gibco) and stained with B2P or B2PI at 10 µM and MB2P or MB2PI at 30 µM for 17 h. Cells were washed twice with PBS and covered with phenol red free RPMI medium (Gibco) for imaging. […]

[3] = system: MCF‐7 cells; assay: as above; assay type: cell-based; conditions: ER Tracker 1 µM, 45 min
Protocol: as §1, §2, §3, §4, §5

## CC1=C(I)C(C)=[N+]2C1=C(c1ccccc1)c1c(C)c(-c3ccc4c5cccc6cccc(c7cccc3c74)c65)c(C)n1[B-]2(F)F [B2PI]
[1]
  IC50: 44 ± 3.84 µM
[2]
  Pearson Coefficient (r) with ER Tracker Blue/White: 0.46 ± 0.04 and ~0.5
[3]
  Pearson Coefficient (r) with ER Tracker Blue/White: 0.19 ± 0.05

## CC1=CC(C)=[N+]2C1=C(c1ccccc1)c1c(C)c(-c3ccc4c5cccc6cccc(c7cccc3c74)c65)c(C)n1[B-]2(F)F [B2P]
[1]
  IC50: 46 ± 2.38 µM
[2]
  Pearson Coefficient (r) with ER Tracker Blue/White: 0.17 ± 0.06
[3]
  Pearson Coefficient (r) with ER Tracker Blue/White: 0.14 ± 0.07

## CC1=C(c2ccc3c4cccc5cccc(c6cccc2c63)c54)C(C)=[N+]2C1=C(c1c(C)cc(C)cc1C)c1c(C)c(I)c(C)n1[B-]2(F)F [MB2PI]
[1]
  IC50: > 50 µM
[2]
  Pearson Coefficient (r) with ER Tracker Blue/White: 0.46 ± 0.01 and ~0.5
[3]
  Pearson Coefficient (r) with ER Tracker Blue/White: 0.53 ± 0.04 and ~0.5

## CC1=C(c2ccc3c4cccc5cccc(c6cccc2c63)c54)C(C)=[N+]2C1=C(c1c(C)cc(C)cc1C)c1c(C)cc(C)n1[B-]2(F)F [MB2P]
[1]
  IC50: > 50 µM
[2]
  Pearson Coefficient (r) with ER Tracker Blue/White: 0.56 ± 0.02 and ~0.5
[3]
  Pearson Coefficient (r) with ER Tracker Blue/White: 0.54 ± 0.04 and ~0.5
